Measurements published in ChEMBL document CHEMBL1201862, “PubChem BioAssay data set” (2004).
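Method: 48-hour compound exposure of cells in 96-well plates, five concentrations, linear interpolation of endpoints. GI50 is the concentration that inhibits growth by half.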 Active and inactive are the calls of the source. Rule as the data show it: active = GI50 up to about 1.1 µM and inactive = higher.

How the values were obtained:
Experiment in all cases: NCI-60 cell line screen, 48 h
A549 = tested on: A549
CAKI-1 = tested on: CAKI-1
UACC-62 = tested on: UACC-62
NCI-H23 = tested on: NCI-H23
ACHN = tested on: ACHN
HCT-15 = tested on: HCT-15
UACC-257 = tested on: UACC-257
Hs-578T = tested on: Hs-578T
HCT-116 = tested on: HCT-116
T47D = tested on: T47D
TK-10 = tested on: TK-10
SF-539 = tested on: SF-539
UO-31 = tested on: UO-31
BT-549 = tested on: BT-549
NCI/ADR-RES = tested on: NCI/ADR-RES
DU-145 = tested on: DU-145
HOP-92 = tested on: HOP-92
RPMI-8226 = tested on: RPMI-8226
OVCAR-5 = tested on: OVCAR-5
DMS-273 = tested on: DMS-273

`CS(=O)(=O)c1cc(=O)c2ccccc2s1` was tested, and the GI50 (A549) was 18.4 µM (inactive), the GI50 (CAKI-1) was 2.07 µM (inactive) and the GI50 (UACC-62) was 12.2 µM (inactive). The GI50 (NCI-H23) was 9.06 µM (inactive), the GI50 (ACHN) was 2.74 µM (inactive) and the GI50 (HCT-15) was 2.25 µM. For the same compound, the GI50 (UACC-257) was 3.54 µM (inactive), the GI50 (Hs-578T) was 26.6 µM (inactive) and the GI50 (HCT-116) was 1.96 µM (inactive). The GI50 (T47D) was 3.08 µM (inactive), the GI50 (TK-10) was 7.28 µM (inactive) and the GI50 (SF-539) was 13.2 µM (inactive). The GI50 (UO-31) was 15.7 µM (inactive), the GI50 (BT-549) was 19.3 µM (inactive) and the GI50 (NCI/ADR-RES) was 18 µM (inactive). For the same compound, the GI50 (DU-145) was 16.1 µM (inactive), the GI50 (HOP-92) was 1.8 µM (inactive) and the GI50 (RPMI-8226) was 2.42 µM (inactive). For the same compound, the GI50 (OVCAR-5) was 11.8 µM (inactive) and the GI50 (DMS-273) was 8.77 µM (inactive).

For `CCOC(=O)Oc1cc2c(c(OC)c1OC)-c1ccc(OC)c(=O)cc1C(NC(C)=O)CC2` (centres undefined), the GI50 (A549) was 0.168 µM (active), the GI50 (CAKI-1) was 0.239 µM (active) and the GI50 (UACC-62) was 0.0156 µM (active). The GI50 (NCI-H23) was 0.0187 µM (active), the GI50 (ACHN) was 0.398 µM (active) and the GI50 (HCT-15) was 0.252 µM. The GI50 (UACC-257) was 0.0146 µM (active), the GI50 (Hs-578T) was 0.0619 µM (active) and the GI50 (HCT-116) was 0.0149 µM (active). The GI50 (T47D) was > 100 µM (inactive), the GI50 (TK-10) was 3.78 µM (inactive) and the GI50 (SF-539) was 0.0138 µM (active). The GI50 (UO-31) was 5.35 µM (inactive), the GI50 (NCI/ADR-RES) was 9.33 µM (inactive) and the GI50 (DU-145) was 0.1 µM (active). The GI50 (HOP-92) was 0.0968 µM (active), the GI50 (RPMI-8226) was 0.0141 µM (active) and the GI50 (OVCAR-5) was 2.26 µM (inactive). For the same compound, the GI50 (DMS-273) was < 0.01 µM (active).

`N#Cc1nc(Nc2cccc3ccccc23)sc1N` was tested, and the GI50 (A549) was 26.5 µM (inactive), the GI50 (CAKI-1) was 28.7 µM (inactive) and the GI50 (UACC-62) was 21.2 µM (inactive). For the same compound, the GI50 (NCI-H23) was 14 µM (inactive), the GI50 (ACHN) was 25.1 µM (inactive) and the GI50 (HCT-15) was 29.5 µM. For the same compound, the GI50 (UACC-257) was 15.8 µM (inactive), the GI50 (HCT-116) was 32.1 µM (inactive) and the GI50 (TK-10) was 40.6 µM (inactive). For the same compound, the GI50 (SF-539) was 23.2 µM (inactive), the GI50 (UO-31) was 12.9 µM (inactive) and the GI50 (HOP-92) was 21.1 µM (inactive). The GI50 (RPMI-8226) was 11.9 µM (inactive), the GI50 (OVCAR-5) was 68.9 µM (inactive) and the GI50 (DMS-273) was 36.8 µM (inactive).

For `COc1ccc(C)cc(O)c1=O`, the GI50 (A549) was > 100 µM (inactive), the GI50 (CAKI-1) was 28.2 µM (inactive) and the GI50 (UACC-62) was 22.3 µM (inactive). The GI50 (NCI-H23) was 40.1 µM (inactive), the GI50 (ACHN) was 22.8 µM (inactive) and the GI50 (HCT-15) was > 100 µM. The GI50 (UACC-257) was 33.2 µM (inactive), the GI50 (HCT-116) was 33.7 µM (inactive) and the GI50 (TK-10) was > 100 µM (inactive). The GI50 (SF-539) was 42.5 µM (inactive), the GI50 (UO-31) was 27.4 µM (inactive) and the GI50 (HOP-92) was 26.2 µM (inactive). The GI50 (RPMI-8226) was 39.6 µM (inactive), the GI50 (OVCAR-5) was 68.4 µM (inactive) and the GI50 (DMS-273) was 44.7 µM (inactive).
